Paper PMC8489181 (Clinical cancer research : an official journal of the …, 2020)

How the values were obtained:
[1] = Everolimus whole blood pharmacokinetics; assay type: in vivo, human; settings: for AUC(0-t): AUC0–24h at steady state; for AUC(0-t) / Cmax: everolimus 2.5 mg; for Cmax: geometric mean Cmax at steady state
[2] = tested on: postmenopausal women with ER+, HER2− ABC; assay: Dose-limiting toxicities in cycle 1; assay type: in vivo
[3] = ribociclib CYP3A4 inhibitor, everolimus CYP3A4 substrate; cited from earlier work
[4] = tested on: postmenopausal women with HR+, HER2− advanced breast cancer; assay: Safety and tolerability; assay type: in vivo, human
[5] = Ribociclib plasma pharmacokinetics; assay type: in vivo, human; settings: for AUC(0-t): geometric mean AUC0–24h at steady state; for half-life: geometric mean effective half-life based on drug accumulation
[6] = female, human, whole blood, oral, dose-escalation group 1
[7] = female, human, whole blood, oral, dose-escalation group 2
[8] = taken with food, ribociclib 3 weeks on/1 week off in a 4-week cycle
[9] = dose-escalation group 1 (fasting)
[10] = female, human, plasma, oral, dose-escalation group 1
[11] = female, human, plasma, oral, dose-escalation group 2
[12] = dose-expansion group 1 (CDK4/6i-naïve)
[13] = dose-expansion group 2 (CDK4/6i-refractory)

For `CO[C@H]1C[C@@H]2CC[C@@H](C)[C@@](O)(O2)C(=O)C(=O)N2CCCC[C@H]2C(=O)O[C@H]([C@H](C)C[C@@H]2CC[C@@H](OCCO)[C@H](OC)C2)CC(=O)[C@H](C)/C=C(\C)[C@@H](O)[C@@H](OC)C(=O)[C@H](C)C[C@H](C)/C=C/C=C/C=C/1C` [everolimus], the “AUC0–24h” value ([1]; at the RP2D) was 303 ng·h/mL, the “everolimus exposure increase in the presence of ribociclib (dose-dependent DDI)” value ([1]; dose-escalation phase) was “two- to fourfold” and the Tmax ([1]; female, human, whole blood, oral) was 1 to 2 h. The AUC(0-t) [1, 6] was 166 to 307 ng·h/mL, the AUC(0-t) [1, 7] was 117 to 316 ng·h/mL and the Cmax [1, 6] was 19.7 to 30.3 ng/mL. For the same molecule, the Cmax [1, 7] was 8.25 to 29.4 ng/mL, the “recommended phase II dose (RP2D) in the triplet” value (shortened to “recommended phase II dose (RP2D)”) [2, 8] was 2.5 mg once daily and the “expected increase of everolimus exposure by treatment with ribociclib” value [3] was “approximately 3.5 fold”. For the same molecule, the “patients requiring ≥1 dose interruption” value [4, 9] was 70.7%, the “patients requiring ≥1 dose reduction” value [4, 9] was 2.4% and the “patients requiring ≥1 dose interruption” value ([4]; dose-escalation group 2 (fed)) was 83.3%. The “patients requiring ≥1 dose reduction” value ([4]; dose-escalation group 2 (fed)) was 4.8% and the dose reductions ([4]; dose-expansion phase) was “no dose reductions”.

In the case of `C=C1C[C@@H]2[C@H](CC[C@]3(C)C(=O)CC[C@@H]23)[C@@]2(C)C=CC(=O)C=C12` [exemestane], the “recommended phase II dose (RP2D)” value ([2]; female, human, in vivo, 28 days) is reported as 25 mg once daily, the “patients requiring ≥1 dose interruption” value [4, 9] is reported as 61% and the “patients requiring ≥1 dose interruption” value ([4]; dose-escalation group 2 (fed)) is reported as 71.4%.

In the case of `CN(C)C(=O)c1cc2cnc(Nc3ccc(N4CCNCC4)cn3)nc2n1C1CCCC1` [ribociclib], the Tmax ([5]; female, human, plasma, oral) is reported as 1 to 4 h, the Cmax ([5]; female, human, plasma, oral, Cmax at steady state, at the RP2D) is reported as 773 ng/mL and the AUC(0-t) [5, 10] is reported as 4570 to 11100 ng·h/mL. It also gave an AUC(0-t) [5, 11] of 3970 to 13400 ng·h/mL, a Cmax ([5]; female, human, plasma, oral, geometric mean Cmax at steady state, dose-escalation group 1, 200–350 mg dose) of 413 to 1000 ng/mL and a Cmax ([5]; female, human, plasma, oral, geometric mean Cmax at steady state, dose-escalation group 2) of 289 to 955 ng/mL. The half-life [5, 10] was 24.9 to 47.6 h, the half-life [5, 11] was 29.5 to 49.9 h and the “mean steady-state exposure in the presence of food” value ([5]; same dose level, fed versus fasted) was “slightly lower”. The “DDI in the presence of everolimus and exemestane” value ([5]; triplet combination, versus single-agent ribociclib exposure) was “No DDIs were observed”, the “recommended phase II dose (RP2D)” value [2, 8] was 300 mg once daily and the “patients requiring ≥1 dose interruption” value [4, 9] was 68.3%. The “patients requiring ≥1 dose reduction” value [4, 9] was 22.0%, the “patients requiring ≥1 dose interruption” value ([4]; dose-escalation group 2 (fed)) was 80.9% and the “patients requiring ≥1 dose reduction” value ([4]; dose-escalation group 2 (fed)) was 33.3%. The “patients requiring ≥1 dose interruption” value [4, 12] was 87.5%, the “patients requiring ≥1 dose reduction” value [4, 12] was 43.8% and the “patients requiring ≥1 dose interruption” value [4, 13] was 82.4%. The “patients requiring ≥1 dose reduction” value [4, 13] was 23.5%.
